Patent US10517889B2, “Modulators of SMAD7 expression” (Ionis Pharmaceuticals, Inc., priority 2017, dated 2019)
Strand notation (5' to 3'): a small letter for the sugar, then the base; units joined by * are phosphorothioate-linked, units joined directly phosphodiester-linked; [ ] holds rarer units or linkages, { } end groups; capitals alone tell only the bases. e = 2'-O-(2-methoxyethyl) (MOE); [5mC] = 5-methylcytosine; d = 2'-deoxy (DNA)

Each substance was assayed on human SMAD7 mRNA (assay: Antisense inhibition of human SMAD7 mRNA expression in Hep3B cells by 5-10-5 MOE gapmers, single concentration, electroporation, RT-PCR (Example 1, Study 1 and 2)). Settings: Study 2, electroporation with 15,000 nM antisense oligonucleotide, 5-10-5 MOE gapmers targeting SEQ ID NO: 1 and 2.
Format: cell-based
Summary of the method: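 Readout is percent SMAD7 mRNA inhibition versus untreated cells, measured by qRT-PCR (RTS5062) and corrected for total RNA by RIBOGREEN. Oligonucleotide, 5,000 nM or 15,000 nM, was delivered by electroporation into Hep3B cells at 20,000 per well. RNA was collected about 24 h later.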

| Substance | % inhibition of SMAD7 mRNA expression [%] |
| --- | --- |
| 771564 (antisense eG*e[5mC]*e[5mC]*eG*e[5mC]*dA*d[5mC]*dA*d[5mC]*dT*d[5mC]*dA*d[5mC]*dA*d[5mC]*eT*e[5mC]*eA*e[5mC]*eA) [compound 771564] | 28 |
| 771566 (antisense eG*eA*e[5mC]*eA*e[5mC]*dA*dA*dA*dA*d[5mC]*dA*dA*dA*dG*dA*eG*e[5mC]*eA*e[5mC]*eG) [compound 771566] | 28 |
| 771567 (antisense eG*eG*eG*eA*e[5mC]*dA*dT*d[5mC]*d[5mC]*dA*dT*dA*dA*dG*dA*eG*eA*e[5mC]*eA*e[5mC]) [compound 771567] | 39 |
| 771575 (antisense eA*e[5mC]*e[5mC]*eG*e[5mC]*dT*dT*dG*dG*dG*dA*d[5mC]*dT*dG*d[5mC]*eA*eA*eA*e[5mC]*e[5mC]) [compound 771575] | 47 |
| 771580 (antisense eA*eG*e[5mC]*eT*eT*dG*d[5mC]*d[5mC]*d[5mC]*dA*dG*dG*dT*dA*d[5mC]*eT*eG*e[5mC]*e[5mC]*eT) [compound 771580] | 25 |
| 771582 (antisense e[5mC]*eT*eG*eG*e[5mC]*dA*dG*d[5mC]*dT*dG*d[5mC]*dT*dG*dG*dG*eA*e[5mC]*e[5mC]*e[5mC]*e[5mC]) [compound 771582] | 37 |
| 771588 (antisense eA*eG*eG*e[5mC]*e[5mC]*d[5mC]*dG*dT*dG*dT*d[5mC]*d[5mC]*dT*dT*dG*eA*eT*eG*eA*eG) [compound 771588] | 13 |
| 771590 (antisense eG*e[5mC]*e[5mC]*eT*eG*dT*dG*dG*dA*d[5mC]*dA*dG*dG*d[5mC]*d[5mC]*e[5mC]*eG*eT*eG*eT) [compound 771590] | 14 |
| 771591 (antisense e[5mC]*eA*eG*eA*eA*dG*d[5mC]*d[5mC]*dT*dG*dT*dG*dG*dA*d[5mC]*eA*eG*eG*e[5mC]*e[5mC]) [compound 771591] | 50 |
| 771596 (antisense eG*eA*e[5mC]*eA*eA*dG*dG*dA*dT*dG*dA*dA*dA*dA*dT*eA*eA*eT*eT*eG) [compound 771596] | 0 |
| 771598 (antisense eG*eA*eA*eG*eG*dG*dA*dA*dT*dA*dA*dG*dA*d[5mC]*dA*eA*eG*eG*eA*eT) [compound 771598] | 34 |
| 771599 (antisense eG*e[5mC]*eA*eG*eG*dA*dA*dG*dG*dG*dA*dA*dT*dA*dA*eG*eA*e[5mC]*eA*eA) [compound 771599] | 39 |
| 771604 (antisense e[5mC]*e[5mC]*eT*eT*eG*dG*dG*dA*dA*dG*d[5mC]*d[5mC]*d[5mC]*dA*dT*e[5mC]*eT*e[5mC]*eA*eG) [compound 771604] | 12 |
| 771606 (antisense eG*eG*eG*e[5mC]*eT*dG*d[5mC]*d[5mC]*d[5mC]*d[5mC]*dG*dG*d[5mC]*dA*dG*e[5mC]*e[5mC]*e[5mC]*eT*eT) [compound 771606] | 0 |
| 771607 (antisense eG*eG*eT*eG*eA*dG*d[5mC]*dA*dA*dT*dA*d[5mC]*dT*dG*dT*eG*eA*eG*eG*eG) [compound 771607] | 34 |

Same assay, conditions: electroporation with 15,000 nM antisense oligonucleotide (Study 2), 5-10-5 MOE gapmers targeting SEQ ID NO: 1 and 2

| Substance | % Inhibition of SMAD7 mRNA [%] | % inhibition of SMAD7 mRNA expression [%] |
| --- | --- | --- |
| 771568 (antisense e[5mC]*eT*eG*e[5mC]*eA*dA*dA*d[5mC]*d[5mC]*dT*d[5mC]*dT*d[5mC]*dT*dG*e[5mC]*eT*eG*eG*eG) [compound 771568] | 26 | – |
| 771584 (antisense eA*eG*e[5mC]*e[5mC]*eG*dT*dG*d[5mC]*dT*d[5mC]*d[5mC]*dT*dG*dG*d[5mC]*eA*eG*e[5mC]*eT*eG) [compound 771584] | 26 | – |
| 771592 (antisense e[5mC]*eT*eG*e[5mC]*eT*d[5mC]*dA*dG*dA*dA*dG*d[5mC]*d[5mC]*dT*dG*eT*eG*eG*eA*e[5mC]) [compound 771592] | 16 | – |
| 771600 (antisense eT*eG*eG*e[5mC]*e[5mC]*dA*dA*dA*dA*dA*dA*dG*dA*dA*dA*eG*eA*e[5mC]*eG*e[5mC]) [compound 771600] | 11 | – |
| 771602 (antisense eG*eG*eA*eG*eA*dT*d[5mC]*d[5mC]*dA*dG*dG*dA*dG*d[5mC]*dA*eG*eA*eT*eG*eG) [compound 771602] | – | 39 |

Same assay, conditions: electroporation, 15,000 nM antisense oligonucleotide (Study 2), 5-10-5 MOE gapmers targeting SEQ ID NO: 1 and 2

| Substance | % inhibition of SMAD7 mRNA expression [%] |
| --- | --- |
| 771562 (antisense eA*e[5mC]*eA*e[5mC]*eA*d[5mC]*dA*d[5mC]*dT*d[5mC]*d[5mC]*dT*dG*dA*d[5mC]*eA*eA*eG*eT*eG) [compound 771562] | 30 |
| 771568 (antisense e[5mC]*eT*eG*e[5mC]*eA*dA*dA*d[5mC]*d[5mC]*dT*d[5mC]*dT*d[5mC]*dT*dG*e[5mC]*eT*eG*eG*eG) [compound 771568] | 17 |
| 771569 (antisense eG*eG*eA*e[5mC]*eT*dG*d[5mC]*dA*dA*dA*d[5mC]*d[5mC]*dT*d[5mC]*dT*e[5mC]*eT*eG*e[5mC]*eT) [compound 771569] | 30 |
| 771577 (antisense eT*eG*e[5mC]*e[5mC]*eT*d[5mC]*dT*dG*d[5mC]*d[5mC]*d[5mC]*d[5mC]*dA*d[5mC]*dT*eG*eA*eG*e[5mC]*eG) [compound 771577] | 21 |
| 771578 (antisense e[5mC]*eT*eG*e[5mC]*e[5mC]*dT*d[5mC]*dT*dG*d[5mC]*d[5mC]*d[5mC]*d[5mC]*dA*d[5mC]*eT*eG*eA*eG*e[5mC]) [compound 771578] | 50 |
| 771584 (antisense eA*eG*e[5mC]*e[5mC]*eG*dT*dG*d[5mC]*dT*d[5mC]*d[5mC]*dT*dG*dG*d[5mC]*eA*eG*e[5mC]*eT*eG) [compound 771584] | 7 |
| 771585 (antisense eG*eA*eG*e[5mC]*e[5mC]*dG*dT*dG*d[5mC]*dT*d[5mC]*d[5mC]*dT*dG*dG*e[5mC]*eA*eG*e[5mC]*eT) [compound 771585] | 49 |
| 771586 (antisense e[5mC]*e[5mC]*eT*eT*eG*dA*dT*dG*dA*dG*dG*dG*dA*dG*dA*eG*eG*eA*eG*eG) [compound 771586] | 48 |
| 771592 (antisense e[5mC]*eT*eG*e[5mC]*eT*d[5mC]*dA*dG*dA*dA*dG*d[5mC]*d[5mC]*dT*dG*eT*eG*eG*eA*e[5mC]) [compound 771592] | 0 |
| 771593 (antisense e[5mC]*eG*e[5mC]*eT*eG*d[5mC]*dT*d[5mC]*dA*dG*dA*dA*dG*d[5mC]*d[5mC]*eT*eG*eT*eG*eG) [compound 771593] | 41 |
| 771594 (antisense eG*eG*e[5mC]*e[5mC]*eA*d[5mC]*dT*dA*dG*d[5mC]*dA*dG*dG*d[5mC]*dT*e[5mC]*eG*e[5mC]*eT*eG) [compound 771594] | 37 |
| 771600 (antisense eT*eG*eG*e[5mC]*e[5mC]*dA*dA*dA*dA*dA*dA*dG*dA*dA*dA*eG*eA*e[5mC]*eG*e[5mC]) [compound 771600] | 0 |
| 771601 (antisense eG*eA*eT*eG*eG*d[5mC]*d[5mC]*dA*dA*dA*dA*dA*dA*dG*dA*eA*eA*eG*eA*e[5mC]) [compound 771601] | 13 |

Same assay, conditions: electroporation, 15,000 nM, approximately 24 hours, relative to untreated control cells, gapmers targeting SEQ ID NO: 1 and 2

| Substance | % inhibition of SMAD7 mRNA expression [%] |
| --- | --- |
| 771565 (antisense e[5mC]*eT*eG*e[5mC]*e[5mC]*dG*d[5mC]*dT*d[5mC]*d[5mC]*dT*dG*d[5mC]*dA*d[5mC]*eA*e[5mC]*eG*e[5mC]*eG) [compound 771565] | 55 |
| 771589 (antisense eT*eG*eG*eA*e[5mC]*dA*dG*dG*d[5mC]*d[5mC]*d[5mC]*dG*dT*dG*dT*e[5mC]*e[5mC]*eT*eT*eG) [compound 771589] | 51 |
| 771597 (antisense eG*eA*eA*eT*eA*dA*dG*dA*d[5mC]*dA*dA*dG*dG*dA*dT*eG*eA*eA*eA*eA) [compound 771597] | 0 |
| 771605 (antisense eG*eG*e[5mC]*eT*eG*d[5mC]*d[5mC]*d[5mC]*d[5mC]*dG*dG*d[5mC]*dA*dG*d[5mC]*e[5mC]*e[5mC]*eT*eT*eG) [compound 771605] | 26 |
